The source of these data is patent publication US6461997B1, “Triazole sulfones having herbicidal activity” (Monsanto Technology LLC, priority 1999, dated 2002).

The subject of assay [1] is POLCO (wild buckwheat). Description: Pre-emergence herbicidal activity, cool season. The conditions noted are these: lowest tested rate with 80% or greater inhibition; rates 300, 100, 30, 10 g/ha; about 14 days. Type of assay: in vivo, Polygonum convolvulus. An outline of the steps: (§1)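 Each pot received seeds on sterilized fertilized topsoil, a soil cover, and a surface spray of compound (300–10 g/ha, acetone/water 50:50). Plants grew about 14 days at 30/21 °C (PANMI, DIGSA) or 18/13 °C (ALOMY, POLCO) before inhibition was rated against untreated pots to give GR80.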

Assay [2] has as its system GALAP (catchweed bedstraw). Description: Pre-emergence herbicidal activity, cool season. The conditions noted are these: lowest tested rate with 80% or greater inhibition; rates 300, 100, 30, 10 g/ha; about 14 days. Type of assay: in vivo, Galium aparine. The essentials:
(§2)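 Seeds sown in sterilised fertilised topsoil received surface-applied compound in 50:50 acetone/water, typically at 300, 100, 30 and 10 g/ha, then greenhouse-grown at 30/21° C (warm-season species) or 18/13° C (cool-season species). Percent inhibition versus untreated plants was scored at about 14 days, giving GR80; an asterisk marks activity short of 80% at the top rate.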

For assay [3], the system named is AGSST (creeping bentgrass). Description: Pre-emergence herbicidal activity, cool season. The format is in vivo, Agrostis stolonifera. The conditions noted are these: GR80 = lowest tested rate (300, 100, 30, 10 g/ha) with 80% or greater inhibition; approx. 14 days after treating; 18/13° C. An outline of the steps:
as §2

Assay [4] concerns AVEFA (wild oat). The experiment in a line: Post-emergence herbicidal activity, cool season. The conditions noted are these: abraded plants sprayed at 300, 100, 30 and 10 g/ha; about 14 days after treatment. Type of assay: in vivo, Avena fatua. The protocol:
(§3) In another set of tests, the post-emergence activity of compounds of this invention was evaluated on the cool season species listed above. The following procedure was used.
(§4) A pre-prepared topsoil mixture (described above) was placed in a pot and compacted to a depth of 1.0 to 1.25 cm from the top of the pot. Seeds of each of several monocotyledonous and dicotyledonous annual plant species were placed on top of the soil. The seeds were covered with a mixture of 50% topsoil and 50% Rediearth™ in sufficient quantity to level-fill the pots. The pots were then placed on a greenhouse bench and subirrigated as needed.
(§5) When plants growing from the seeds had emerged and reached a suitable growth stage for post-emergence treatment, typically 9 to 14 days after planting, above-ground parts of the plants were subjected to a pre-treatment involving abrasion to create greater opportunity for foliar uptake of subsequently applied compounds. Abrasion was performed using garnet 200w particles applied with a Sears Craftsman hand-held sandblaster operated at approximately 850 kPa (50 psig) pressure.
(§6) A known amount of each test compound dissolved or suspended in an appropriate organic solvent was diluted with a 50:50 mix of acetone and water and applied to the plants by spraying with a standard spray nozzle in a spray volume of […] at a spray pressure of 511 kPa (30 psig). Only the compounds of Examples 1, 8-15 and 17-22 were included in post-emergence tests. Application rates for these compounds were 300, 100, 30 and 10 g/ha. Control plants were abraded but not sprayed.
(§7) After treatment the plants were placed in a greenhouse with an 18/13° C. day/night temperature regime and were subsequently watered as needed for growth. Approximately 14 days after treatment, the plants were observed and herbicidal efficacy recorded as percent inhibition by comparison with control plants. GR80 values were assigned for each compound as described above for the pre-emergence tests.

Assay [5] concerns AEGCY (jointed goatgrass). The experiment in a line: Post-emergence herbicidal activity, cool season. The conditions noted are these: abraded plants sprayed at 300, 100, 30 and 10 g/ha; about 14 days after treatment. The format is in vivo, Aegilops cylindrica. The protocol: as §3, §4, §5, §6, §7
The subject of assay [6] is ALOMY (blackgrass). The experiment in a line: Post-emergence herbicidal activity, cool season. Type of assay: in vivo, Alopecurus myosuroides. The conditions noted are these: abraded plants sprayed at 300, 100, 30 and 10 g/ha; about 14 days after treatment. The method, then:
as §3, §4, §5, §6, §7

Assay [7] relates to SINAR (wild mustard). Description: Pre-emergence herbicidal activity, cool season. The format is in vivo, Sinapis arvensis. The conditions noted are these: lowest tested rate with 80% or greater inhibition; rates 300, 100, 30, 10 g/ha; about 14 days. An outline of the steps: as §2
The subject of assay [8] is SORVU (shattercane). The experiment in a line: Pre-emergence herbicidal activity, warm season. The conditions noted are these: GR80 = lowest tested rate (300, 100, 30, 10 g/ha) with 80% or greater inhibition; approx. 14 days after treating; 30/21° C. The format is in vivo, Sorghum vulgare. An outline of the steps:
(§8)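 Activity is expressed as the rate giving 80% inhibition, with 300, 100, 30 and 10 g/ha typically tested. An asterisk marks activity short of 80% at the top rate. Warm-season grasses were held at 30/21 °C; cool-season blackgrass and wild buckwheat at 18/13 °C; scoring at about 14 days.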

Assay [9] has as its system LAMPU (purple deadnettle). The experiment in a line: Pre-emergence herbicidal activity, cool season. The conditions noted are these: lowest tested rate with 80% or greater inhibition; rates 300, 100, 30, 10 g/ha; about 14 days. Type of assay: in vivo, Lamium purpureum. The essentials:
as §2

In assay [10] the test system is BROTE (downy brome). The experiment in a line: Post-emergence herbicidal activity, cool season. The format is in vivo, Bromus tectorum. The conditions noted are these: abraded plants sprayed at 300, 100, 30 and 10 g/ha; about 14 days after treatment. The method, then: as §3, §4, §5, §6, §7
The test system of assay [11] is SASKR (russian thistle). Description: Pre-emergence herbicidal activity, cool season. Type of assay: in vivo, Salsola kali. The conditions noted are these: lowest tested rate with 80% or greater inhibition; rates 300, 100, 30, 10 g/ha; about 14 days. The essentials: as §2
For assay [12], the system named is BRAPP (broadleaf signalgrass). The experiment in a line: Pre-emergence herbicidal activity, warm season. The format is in vivo, Brachiaria platyphylla. The conditions noted are these: GR80 = lowest tested rate (300, 100, 30, 10 g/ha) with 80% or greater inhibition; approx. 14 days after treating; 30/21° C. The essentials:
as §8

For assay [13], the system named is ECHCG (barnyardgrass). Description: Pre-emergence herbicidal activity, warm season. The format is in vivo, Echinochloa crus-galli. The conditions noted are these: GR80 = lowest tested rate (300, 100, 30, 10 g/ha) with 80% or greater inhibition; approx. 14 days after treating; 30/21° C. An outline of the steps: as §8
In assay [14] the test system is AGRRE (quackgrass (seedling)). The experiment in a line: Post-emergence herbicidal activity, cool season. The format is in vivo, Elymus repens. The conditions noted are these: abraded plants sprayed at 300, 100, 30 and 10 g/ha; about 14 days after treatment. The method, then:
as §3, §4, §5, §6, §7

Assay [15] has as its system STEME (common chickweed). Description: Pre-emergence herbicidal activity, cool season. Type of assay: in vivo, Stellaria media. The conditions noted are these: lowest tested rate with 80% or greater inhibition; rates 300, 100, 30, 10 g/ha; about 14 days. An outline of the steps:
as §2

The subject of assay [16] is GALAP (catchweed bedstraw). Description: Post-emergence herbicidal activity, cool season. The format is in vivo, Galium aparine. The conditions noted are these: abraded plants sprayed; GR80 = lowest tested rate (300, 100, 30, 10 g/ha) with 80% or greater inhibition; approx. 14 days after treatment; 18/13° C. The method, then:
as §3, §4
When plants growing from the seeds had emerged and reached a suitable growth stage for post-emergence treatment, typically 9 to 14 days after planting, above-ground parts of the plants were subjected to a pre-treatment involving abrasion to create greater opportunity for foliar uptake of subsequently applied compounds. Abrasion was performed using garnet 200w particles applied with a Sears Craftsman hand-held sandblaster operated at approximately 850 kPa (50 psig) pressure. […]
After treatment the plants were placed in a greenhouse with an 18/13° C. day/night temperature regime and were subsequently watered as needed for growth. Approximately 14 days after treatment, the plants were observed and herbicidal efficacy recorded as percent inhibition by comparison with control plants. […]

For assay [17], the system named is SETVI (green foxtail). Description: Post-emergence herbicidal activity, cool season. The format is in vivo, Setaria viridis. The conditions noted are these: abraded plants sprayed at 300, 100, 30 and 10 g/ha; about 14 days after treatment. The method, then: as §3, §4, §5, §6, §7
For assay [18], the system named is AGSST (creeping bentgrass). The experiment in a line: Post-emergence herbicidal activity, cool season. The format is in vivo, Agrostis stolonifera. The conditions noted are these: abraded plants sprayed at 300, 100, 30 and 10 g/ha; about 14 days after treatment. The protocol: as §3, §4, §5, §6, §7
In assay [19] the test system is PANMI (wild proso millet). The experiment in a line: Pre-emergence herbicidal activity, warm season. The conditions noted are these: GR80 = lowest tested rate (300, 100, 30, 10 g/ha) with 80% or greater inhibition; approx. 14 days after treating; 30/21° C. Type of assay: in vivo, Panicum miliaceum. The essentials: as §1
Assay [20] relates to LOLMG (annual ryegrass). Description: Post-emergence herbicidal activity, cool season. The conditions noted are these: abraded plants sprayed at 300, 100, 30 and 10 g/ha; about 14 days after treatment. The format is in vivo, Lolium multiflorum. The method, then: as §3, §4, §5, §6, §7
For assay [21], the system named is VERPE (creeping speedwell). Description: Pre-emergence herbicidal activity, cool season. Type of assay: in vivo, Veronica persicaria. The conditions noted are these: lowest tested rate with 80% or greater inhibition; rates 300, 100, 30, 10 g/ha; about 14 days. The essentials: as §2

In the case of `CCN(CC)C(=O)n1cnc(S(=O)(=O)C(F)(F)SCCO)n1` [Example 12, 1-(N,N-diethylcarbamoyl)-3-[(2-hydroxyethylthio)difluoromethylsulfonyl]-1,2,4-triazole], in [1], the “Pre-emergence activity GR80, POLCO” value is “[empty]”. The “Pre-emergence activity GR80, GALAP” value in assay [2] is “[empty]”. Further, the “Pre-emergence activity (GR80) AGSST” value in assay [3] is 300 g/ha. For the same compound, the “Post-emergence activity GR80, AVEFA” value in assay [4] was “[empty]”. Moreover, the “Post-emergence activity GR80, AEGCY” value in assay [5] is “[empty]”. Further, the “Post-emergence activity GR80, ALOMY” value in assay [6] is “[empty]”. Further, the “Pre-emergence activity GR80, SINAR” value in [7] is “[empty]”. Moreover, in assay [8], the “Pre-emergence activity (GR80) SORVU” value is given as “* (activity observed, at least at highest rate, but <80% inhibition)”. Moreover, the “Pre-emergence activity GR80, LAMPU” value in assay [9] was determined as 300 g/ha. Also, the “Post-emergence activity GR80, BROTE” value in [10] is “[empty]”. Besides, the “Pre-emergence activity GR80, SASKR” value in [11] is “[empty]”. In addition, in assay [12], the “Pre-emergence activity (GR80) BRAPP” value is reported as “* (activity observed, at least at highest rate, but <80% inhibition)”. Besides, the “Pre-emergence activity (GR80) ECHCG” value in assay [13] was “* (activity observed, at least at highest rate, but <80% inhibition)”. In assay [14], the “Post-emergence activity GR80, AGRRE” value is “[empty]”. Further, the “Pre-emergence activity GR80, STEME” value in [15] is listed as 300 g/ha. In assay [16], the “Post-emergence activity (GR80) GALAP” value is reported as 300 g/ha. In addition, the “Post-emergence activity GR80, SETVI” value in assay [17] was “[empty]”. Besides, the “Post-emergence activity GR80, AGSST” value in assay [18] is “[empty]”. In addition, in [19], the “Pre-emergence activity (GR80) PANMI” value is reported as “* (activity observed, at least at highest rate, but <80% inhibition)”. In addition, the “Post-emergence activity GR80, LOLMG” value in [20] was “[empty]”. In addition, the “Pre-emergence activity GR80, VERPE” value in assay [21] was “[empty]”.
